Test results: patent US20090270394A1, “CYCLYLAMINE DERIVATIVES AS CALCIUM CHANNEL BLOCKERS” (priority 2008, published 2009)

Molecular target: T1, Human Cav2.2 channels (Homo sapiens, UniProt Q00975)
T1 construct: expressed in transfected cells
Test: Fluorescent assay for Cav2.2 channels using potassium depolarization to initiate channel opening
Assay type: cell-based
Conditions: for inhibition at 10 µM: read-out: Cav 2.2 Activity % Inh at 10 μM; for inhibition at 30 µM: read-out: Cav 2.2 Activity % Inh at 30 μM; for IC50: 30 mM K (block of open and inactivated channels), read-out: Cav 2.2 Activity IC50 at 30 mM K
Outline: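 HEK293 cells stably expressing human Cav2.2 with alpha2-delta and beta subunits plus Kir2.3, dye-loaded, then held 30 min at 25° C. in 4, 12, 25 or 30 mM K+ pre-polarization buffer with compound.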

T1 sequence (Q00975 whole entry): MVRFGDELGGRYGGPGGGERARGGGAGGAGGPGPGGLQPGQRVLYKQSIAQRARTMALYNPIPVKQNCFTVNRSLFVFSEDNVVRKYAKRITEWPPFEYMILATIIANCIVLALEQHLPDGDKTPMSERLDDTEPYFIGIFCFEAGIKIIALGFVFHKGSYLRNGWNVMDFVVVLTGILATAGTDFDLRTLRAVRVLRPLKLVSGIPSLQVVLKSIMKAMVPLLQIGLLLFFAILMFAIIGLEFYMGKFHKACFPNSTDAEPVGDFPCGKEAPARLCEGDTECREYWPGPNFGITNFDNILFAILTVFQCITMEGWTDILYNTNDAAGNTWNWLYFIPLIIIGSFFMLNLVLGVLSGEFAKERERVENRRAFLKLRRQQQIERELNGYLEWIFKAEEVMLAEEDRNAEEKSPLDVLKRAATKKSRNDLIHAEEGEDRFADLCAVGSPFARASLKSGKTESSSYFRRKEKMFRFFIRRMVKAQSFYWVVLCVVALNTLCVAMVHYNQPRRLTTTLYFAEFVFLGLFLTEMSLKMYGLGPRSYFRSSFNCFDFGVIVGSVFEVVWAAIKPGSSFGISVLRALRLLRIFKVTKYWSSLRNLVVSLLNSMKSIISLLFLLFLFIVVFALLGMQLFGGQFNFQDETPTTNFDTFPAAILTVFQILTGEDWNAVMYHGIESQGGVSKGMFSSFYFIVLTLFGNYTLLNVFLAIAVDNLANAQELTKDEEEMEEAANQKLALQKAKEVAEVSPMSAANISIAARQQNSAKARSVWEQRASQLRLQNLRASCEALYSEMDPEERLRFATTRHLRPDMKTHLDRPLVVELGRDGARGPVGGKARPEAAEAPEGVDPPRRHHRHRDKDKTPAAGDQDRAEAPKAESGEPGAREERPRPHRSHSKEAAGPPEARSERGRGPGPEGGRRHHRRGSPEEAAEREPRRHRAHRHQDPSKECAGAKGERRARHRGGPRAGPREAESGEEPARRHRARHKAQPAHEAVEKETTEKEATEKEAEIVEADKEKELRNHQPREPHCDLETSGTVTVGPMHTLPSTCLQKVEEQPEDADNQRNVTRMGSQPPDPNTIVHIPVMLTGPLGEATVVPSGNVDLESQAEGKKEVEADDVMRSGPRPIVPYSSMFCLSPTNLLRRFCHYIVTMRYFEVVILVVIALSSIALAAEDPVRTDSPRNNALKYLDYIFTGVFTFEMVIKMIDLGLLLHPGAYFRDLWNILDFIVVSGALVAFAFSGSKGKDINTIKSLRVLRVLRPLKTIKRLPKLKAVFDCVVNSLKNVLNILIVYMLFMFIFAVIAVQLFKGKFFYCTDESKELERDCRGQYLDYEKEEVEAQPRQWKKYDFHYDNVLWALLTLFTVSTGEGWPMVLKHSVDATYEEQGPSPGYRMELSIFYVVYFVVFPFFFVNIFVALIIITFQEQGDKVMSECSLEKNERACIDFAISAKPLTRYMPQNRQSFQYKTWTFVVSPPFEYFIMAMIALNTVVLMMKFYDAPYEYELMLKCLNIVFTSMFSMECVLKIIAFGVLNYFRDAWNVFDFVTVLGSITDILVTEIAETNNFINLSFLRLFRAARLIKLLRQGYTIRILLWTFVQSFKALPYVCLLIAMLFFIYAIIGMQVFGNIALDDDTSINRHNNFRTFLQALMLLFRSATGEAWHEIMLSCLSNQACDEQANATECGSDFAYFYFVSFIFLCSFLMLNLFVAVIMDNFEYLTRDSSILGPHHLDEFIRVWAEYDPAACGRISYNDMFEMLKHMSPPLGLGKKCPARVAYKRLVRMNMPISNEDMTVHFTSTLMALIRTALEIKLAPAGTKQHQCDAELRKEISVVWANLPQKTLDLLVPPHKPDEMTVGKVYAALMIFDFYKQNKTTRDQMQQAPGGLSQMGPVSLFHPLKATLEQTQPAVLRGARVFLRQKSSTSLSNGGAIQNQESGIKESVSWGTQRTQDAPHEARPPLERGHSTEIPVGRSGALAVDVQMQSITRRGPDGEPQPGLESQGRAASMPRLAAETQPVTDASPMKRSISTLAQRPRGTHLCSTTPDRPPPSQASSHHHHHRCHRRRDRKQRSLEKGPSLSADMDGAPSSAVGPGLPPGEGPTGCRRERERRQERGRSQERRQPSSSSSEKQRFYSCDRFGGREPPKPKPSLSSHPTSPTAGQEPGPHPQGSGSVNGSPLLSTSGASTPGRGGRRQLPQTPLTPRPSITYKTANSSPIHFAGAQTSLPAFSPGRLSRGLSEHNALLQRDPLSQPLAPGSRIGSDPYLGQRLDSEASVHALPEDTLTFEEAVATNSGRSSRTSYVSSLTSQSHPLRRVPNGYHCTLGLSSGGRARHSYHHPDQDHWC
T1 sequence (P54289 25-1103 partner): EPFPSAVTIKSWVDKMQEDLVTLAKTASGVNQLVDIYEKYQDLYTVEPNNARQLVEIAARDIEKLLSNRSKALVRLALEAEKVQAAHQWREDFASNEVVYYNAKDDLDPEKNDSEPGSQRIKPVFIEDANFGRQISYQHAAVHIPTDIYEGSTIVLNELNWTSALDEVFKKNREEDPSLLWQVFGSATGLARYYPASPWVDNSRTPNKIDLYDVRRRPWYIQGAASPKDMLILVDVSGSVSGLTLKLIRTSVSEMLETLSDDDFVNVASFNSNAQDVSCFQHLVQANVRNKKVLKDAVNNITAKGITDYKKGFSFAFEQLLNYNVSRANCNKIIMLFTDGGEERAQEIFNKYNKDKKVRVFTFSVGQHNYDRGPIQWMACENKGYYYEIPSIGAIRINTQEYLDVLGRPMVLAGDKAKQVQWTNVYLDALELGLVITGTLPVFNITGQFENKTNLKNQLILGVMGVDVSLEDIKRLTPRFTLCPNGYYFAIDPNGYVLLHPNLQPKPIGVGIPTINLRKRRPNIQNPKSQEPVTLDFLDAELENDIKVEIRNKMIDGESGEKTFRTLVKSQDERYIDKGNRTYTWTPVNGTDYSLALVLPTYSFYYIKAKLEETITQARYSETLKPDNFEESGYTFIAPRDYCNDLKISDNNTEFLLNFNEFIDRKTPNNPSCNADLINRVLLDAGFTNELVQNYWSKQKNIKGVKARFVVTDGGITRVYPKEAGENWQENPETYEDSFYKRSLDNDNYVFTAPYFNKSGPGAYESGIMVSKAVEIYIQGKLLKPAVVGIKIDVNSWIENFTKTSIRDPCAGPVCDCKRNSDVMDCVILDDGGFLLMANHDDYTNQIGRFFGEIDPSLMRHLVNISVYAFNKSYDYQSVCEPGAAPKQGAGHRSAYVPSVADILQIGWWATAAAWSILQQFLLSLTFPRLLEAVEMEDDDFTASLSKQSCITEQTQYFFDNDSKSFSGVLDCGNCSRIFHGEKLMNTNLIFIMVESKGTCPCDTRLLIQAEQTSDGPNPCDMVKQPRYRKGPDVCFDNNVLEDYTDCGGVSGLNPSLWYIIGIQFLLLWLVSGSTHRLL
T1 sequence (P54284 whole entry partner): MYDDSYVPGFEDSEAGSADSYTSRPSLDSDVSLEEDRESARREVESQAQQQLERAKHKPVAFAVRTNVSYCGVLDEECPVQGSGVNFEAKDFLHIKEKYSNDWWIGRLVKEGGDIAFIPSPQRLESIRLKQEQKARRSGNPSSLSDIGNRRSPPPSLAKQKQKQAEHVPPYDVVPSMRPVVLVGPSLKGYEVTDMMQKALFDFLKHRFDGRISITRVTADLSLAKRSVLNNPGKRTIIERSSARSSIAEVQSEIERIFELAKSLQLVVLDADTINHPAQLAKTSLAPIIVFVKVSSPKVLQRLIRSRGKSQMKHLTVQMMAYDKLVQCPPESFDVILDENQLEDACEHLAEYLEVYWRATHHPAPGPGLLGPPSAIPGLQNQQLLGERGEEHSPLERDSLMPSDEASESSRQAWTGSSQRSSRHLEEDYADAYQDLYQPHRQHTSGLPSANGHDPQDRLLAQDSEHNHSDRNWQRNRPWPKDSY

| Compound | inhibition at 10 µM (10 μM compound) [%] | inhibition at 30 µM (30 μM compound) [%] | IC50 [nM] | Cav 2.2 Activity % Inh at 10 μM (10 μM compound) [%] | Cav 2.2 Activity % Inh at 30 μM (30 μM compound) [%] |
| --- | --- | --- | --- | --- | --- |
| CC(C)(C)c1cc(C(=O)NC2(C(=O)NCc3cccc(C(F)(F)F)c3)CCCCC2)cc(C(C)(C)C)c1 [Compound 62, 3,5-di-tert-butyl-N-(1-(3-(trifluoromethyl)benzylcarbamoyl)cyclohexyl)benzamide] | 94.3 | 88.1 | 99.1 |  |  |
| CC(C)(C)c1cc(C(=O)NC2(C(=O)N3CCOCC3)CCCC2)cc(C(C)(C)C)n1 [Compound 94, 2,6-di-tert-butyl-N-(1-(morpholine-4-carbonyl)cyclopentyl)isonicotinamide] | 96.6 | 87.2 | 329 |  |  |
| COc1c(C(C)(C)C)cc(C(=O)NC2(C(=O)N3CCN(C)CC3)CCCCC2)cc1C(C)(C)C [Compound 104, 3,5-di-tert-butyl-4-methoxy-N-(1-(4-methylpiperazine-1-carbonyl)cyclohexyl)benzamide] |  |  | 1020 |  |  |
| CC(C)(C)c1cc(C(=O)NC2(C(=O)NCc3ccc(F)cc3F)CCCCC2)cc(C(C)(C)C)c1 [Compound 50, 3,5-di-tert-butyl-N-(1-(2,4-difluorobenzylcarbamoyl)cyclohexyl)benzamide] | 99.6 | 102 | 80.3 |  |  |
| CC(C)(C)c1cc(C(=O)NC2(C(=O)NCc3ccc(F)cc3)CCCCC2)cc(C(C)(C)C)c1 [Compound 49, 3,5-di-tert-butyl-N-(1-(4-fluorobenzylcarbamoyl)cyclohexyl)benzamide] | 103 | 91.6 | 44.2 |  |  |
| COc1ccc(CNC(=O)C2(NC(=O)c3cc(C(C)(C)C)cc(C(C)(C)C)c3)CCCC2)cc1 [Compound 37, 3,5-di-tert-butyl-N-(1-(4-methoxybenzylcarbamoyl)cyclopentyl)benzamide] | 93 | 95.8 | 153 |  |  |
| CN(C)c1cccc(CNC(=O)C2(NC(=O)c3cc(C(C)(C)C)nc(C(C)(C)C)c3)CCOCC2)c1 [Compound 25, 2,6-di-tert-butyl-N-(4-(3-(dimethylamino)benzylcarbamoyl)tetrahydro-2H-pyran-4-yl)isonicotinamide] | 70.5 |  | 87.4 |  |  |
| COc1ccc(CNC(=O)C2(NC(=O)c3cc(C(C)(C)C)c(O)c(C(C)(C)C)c3)CCCCC2)cc1 [Compound 67, 3,5-di-tert-butyl-4-hydroxy-N-(1-(4-methoxybenzylcarbamoyl)cyclohexyl)benzamide] | 94.4 | 98.6 | 20.6 |  |  |
| COc1c(C(C)(C)C)cc(C(=O)NC2(C(=O)NCc3ccc(N(C)C)cc3)CCCCC2)cc1C(C)(C)C [Compound 84, 3,5-di-tert-butyl-N-(1-(4-(dimethylamino)benzylcarbamoyl)cyclohexyl)-4-methoxybenzamide] | 25.6 | 53.5 |  |  |  |
| COc1ccc(CNC(=O)C2(NC(=O)c3cc(C(C)(C)C#N)cc(C(C)(C)C#N)c3)CCOCC2)cc1 [Compound 115, 4-(3,5-bis(2-cyanopropan-2-yl)benzamido)-N-(4-methoxybenzyl)tetrahydro-2H-pyran-4-carboxamide] | 53.5 | 73.4 |  |  |  |
| 1-(2,6-di-tert-butylisonicotinimidamido)-N-((5-methylisoxazol-3-yl)methyl)cyclopentanecarboxamide [Compound 90] |  |  | 77.2 | 90.95 | 98.53 |
| COc1c(C(C)(C)C)cc(C(=O)NC2(C(=O)N3CCOCC3)CCCCC2)cc1C(C)(C)C [Compound 29, 3,5-di-tert-butyl-4-methoxy-N-(1-(morpholine-4-carbonyl)cyclohexyl)benzamide] | 85.8 | 90.5 | 67.6 |  |  |
| CC(C)(C#N)c1ccc(C(=O)NC2(C(=O)NCc3ccccc3)CCCCC2)cc1 [Compound 122, N-(1-(benzylcarbamoyl)cyclohexyl)-4-(2-cyanopropan-2-yl)benzamide] | 45.2 | 80.5 |  |  |  |
| CN(C)c1ccc(CNC(=O)C2(NC(=O)c3cc(C(C)(C)C)c(O)c(C(C)(C)C)c3)CCCCC2)cc1 [Compound 7, 3,5-di-tert-butyl-N-(1-(4-(dimethylamino)benzylcarbamoyl)cyclohexyl)-4-hydroxybenzamide] | 99.3 | 102 | 128 |  |  |
| CC(C)(C)c1cc(C(=O)NC2(C(=O)N3CCN(Cc4ccccc4)CC3)CCCCC2)cc(C(C)(C)C)n1 [Compound 69, N-(1-(4-benzylpiperazine-1-carbonyl)cyclohexyl)-2,6-di-tert-butylisonicotinamide] | 88.3 | 95.3 | 538 |  |  |
| COc1c(C(C)(C)C)cc(C(=O)NC2(C(=O)NCc3cc(C)on3)CCCCC2)cc1C(C)(C)C [Compound 86, 3,5-di-tert-butyl-4-methoxy-N-(1-((5-methylisoxazol-3-yl)methylcarbamoyl)cyclohexyl)benzamide] | 99.1 | 104 | 9.57 |  |  |
| CC(C)(C)c1cc(C(=O)NC2(C(=O)Nc3nc4ccccc4[nH]3)CC2)cc(C(C)(C)C)n1 [Compound 19, N-(1-(1H-benzo[d]imidazol-2-ylcarbamoyl)cyclopropyl)-2,6-di-tert-butylisonicotinamide] | 60.3 |  |  |  |  |
| COc1c(C(C)(C)C)cc(C(=O)NC2(C(=O)N3CCN(c4ccccc4)CC3)CCCCC2)cc1C(C)(C)C [Compound 82, 3,5-di-tert-butyl-4-methoxy-N-(1-(4-phenylpiperazine-1-carbonyl)cyclohexyl)benzamide] | 92.6 | 101 | 70.9 |  |  |
| COc1c(C(C)(C)C)cc(C(=O)NC2(C(=O)NCc3ccc(S(C)(=O)=O)cc3)CCCCC2)cc1C(C)(C)C [Compound 108, 3,5-di-tert-butyl-4-methoxy-N-(1-(4-(methylsulfonyl)benzylcarbamoyl)cyclohexyl)benzamide] |  |  | 81.6 |  |  |
| COc1c(C(C)(C)C)cc(C(=O)NC2(C(=O)N3CCN(Cc4ccccc4)CC3)CCCCC2)cc1C(C)(C)C [Compound 83, N-(1-(4-benzylpiperazine-1-carbonyl)cyclohexyl)-3,5-di-tert-butyl-4-methoxybenzamide] | 97.2 | 100 | 134 |  |  |
| Cc1cc(CNC(=O)C2(NC(=O)c3cc(C(C)(C)C)c(O)c(C(C)(C)C)c3)CCCCC2)nn1C [Compound 8, 3,5-di-tert-butyl-N-(1-((1,5-dimethyl-1H-pyrazol-3-yl)methylcarbamoyl)cyclohexyl)-4-hydroxybenzamide] | 100 | 99 | 129 |  |  |
| COc1ccc(C(=O)NC2(C(=O)NCc3cccc(C(F)(F)F)c3)CCCCC2)cc1C(C)(C)C#N [Compound 118, 3-(2-cyanopropan-2-yl)-4-methoxy-N-(1-(3-(trifluoromethyl)benzylcarbamoyl)cyclohexyl)benzamide] | 75.4 | 77.6 | 388 |  |  |
| COc1c(C(C)(C)C)cc(C(=O)NC2(C(=O)NCc3nccs3)CCCCC2)cc1C(C)(C)C [Compound 87, 3,5-di-tert-butyl-4-methoxy-N-(1-(thiazol-2-ylmethylcarbamoyl)cyclohexyl)benzamide] | 102 | 104 | 6.04 |  |  |
| Cc1cc(CNC(=O)C2(NC(=O)c3cc(C(C)(C)C)nc(C(C)(C)C)c3)CCCCC2)nn1C [Compound 78, 2,6-di-tert-butyl-N-(1-((1,5-dimethyl-1H-pyrazol-3-yl)methylcarbamoyl)cyclohexyl)isonicotinamide] | 79.5 | 88.6 | 24.5 |  |  |
| CC(C)(C)c1cc(C(=O)NC2(C(=O)NCc3nccs3)CC2)cc(C(C)(C)C)c1O [Compound 1, 3,5-di-tert-butyl-4-hydroxy-N-(1-(thiazol-2-ylmethylcarbamoyl)cyclopropyl)benzamide] | 95.2 | 104 | 1210 |  |  |
| Cc1cc(CNC(=O)C2(NC(=O)c3cc(C(C)(C)C)c(O)c(C(C)(C)C)c3)CC2)no1 [Compound 116, 3,5-di-tert-butyl-4-hydroxy-N-(1-((5-methylisoxazol-3-yl)methylcarbamoyl)cyclopropyl)benzamide] | 92.5 | 98 | 943 |  |  |
| CC(C)(C)OC(=O)N1CCC(NC(=O)c2cc(C(C)(C)C)nc(C(C)(C)C)c2)(C(=O)O)CC1 [Compound 58, 1-(tert-butoxycarbonyl)-4-(2,6-di-tert-butylisonicotinamido)piperidine-4-carboxylic acid] | 37.6 | 77.9 |  |  |  |
| CC(C)(C)c1cc(C(=O)NC2(C(=O)NCc3ccc(S(C)(=O)=O)cc3)CCOCC2)cc(C(C)(C)C)c1O [Compound 14, 4-(3,5-di-tert-butyl-4-hydroxybenzamido)-N-(4-(methylsulfonyl)benzyl)tetrahydro-2H-pyran-4-carboxamide] | 80.7 | 81.9 |  |  |  |
| COc1ccc(CNC(=O)C2(NC(=O)c3cc(C(C)(C)C)c(OC)c(C(C)(C)C)c3)CCOCC2)cc1 [Compound 114, 4-(3,5-di-tert-butyl-4-methoxybenzamido)-N-(4-methoxybenzyl)tetrahydro-2H-pyran-4-carboxamide] | 90.8 | 92.4 | 32.4 |  |  |
| COc1c(C(C)(C)C)cc(CNC2(C(=O)NCc3cccc(C(F)(F)F)c3)CCCCC2)cc1C(C)(C)C [Compound 71, 1-(3,5-di-tert-butyl-4-methoxybenzylamino)-N-(3-(trifluoromethyl)benzyl)cyclohexanecarboxamide] | 77.3 | 81.1 | 477 |  |  |
